Measurements reported in patent publication US9266878B2, “Phosphatidylinositol 3-kinase inhibitors” (Gilead Calistoga LLC, priority 2012, dated 2016).

Legend:
Assay in all cases: Enzymatic activity of PI3K isoforms, TR-FRET assay (PIP3 formation)
Assay type in all cases: biochemical
PI3Kα = PI3Kα (Homo sapiens (Human), UniProt P42336)
How it was run: (§1)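 Heterodimeric recombinant class I PI3K; PIP3 product displaces labeled PIP3 from GRP-1 PH domain, lowering TR-FRET. Reaction 30 min at 25° C, stopped with 10 mM EDTA, 10 nM labeled-PIP3, 35 nM Eu-GRP-1. Read Ex 340 nm, Em 615/665 nm; IC50 in nM.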

PI3Kδ = PI3Kδ (Homo sapiens (Human), UniProt O00329)
How it was run: as §1

PI3Kβ = PI3Kβ (Homo sapiens (Human), UniProt P42338)
How it was run: (§2)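 Recombinant heterodimeric class I PI3K enzymes were assayed by TR-FRET. PIP3 product displaces fluorescently labelled PIP3 from the GRP-1 PH domain, lowering the signal; IC50 values are given in nM.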

PI3Kγ = PI3Kγ (Homo sapiens (Human), UniProt P48736)
How it was run: as §2

PI3Kβ, sequence (P42338 whole entry, the tested form may be a part): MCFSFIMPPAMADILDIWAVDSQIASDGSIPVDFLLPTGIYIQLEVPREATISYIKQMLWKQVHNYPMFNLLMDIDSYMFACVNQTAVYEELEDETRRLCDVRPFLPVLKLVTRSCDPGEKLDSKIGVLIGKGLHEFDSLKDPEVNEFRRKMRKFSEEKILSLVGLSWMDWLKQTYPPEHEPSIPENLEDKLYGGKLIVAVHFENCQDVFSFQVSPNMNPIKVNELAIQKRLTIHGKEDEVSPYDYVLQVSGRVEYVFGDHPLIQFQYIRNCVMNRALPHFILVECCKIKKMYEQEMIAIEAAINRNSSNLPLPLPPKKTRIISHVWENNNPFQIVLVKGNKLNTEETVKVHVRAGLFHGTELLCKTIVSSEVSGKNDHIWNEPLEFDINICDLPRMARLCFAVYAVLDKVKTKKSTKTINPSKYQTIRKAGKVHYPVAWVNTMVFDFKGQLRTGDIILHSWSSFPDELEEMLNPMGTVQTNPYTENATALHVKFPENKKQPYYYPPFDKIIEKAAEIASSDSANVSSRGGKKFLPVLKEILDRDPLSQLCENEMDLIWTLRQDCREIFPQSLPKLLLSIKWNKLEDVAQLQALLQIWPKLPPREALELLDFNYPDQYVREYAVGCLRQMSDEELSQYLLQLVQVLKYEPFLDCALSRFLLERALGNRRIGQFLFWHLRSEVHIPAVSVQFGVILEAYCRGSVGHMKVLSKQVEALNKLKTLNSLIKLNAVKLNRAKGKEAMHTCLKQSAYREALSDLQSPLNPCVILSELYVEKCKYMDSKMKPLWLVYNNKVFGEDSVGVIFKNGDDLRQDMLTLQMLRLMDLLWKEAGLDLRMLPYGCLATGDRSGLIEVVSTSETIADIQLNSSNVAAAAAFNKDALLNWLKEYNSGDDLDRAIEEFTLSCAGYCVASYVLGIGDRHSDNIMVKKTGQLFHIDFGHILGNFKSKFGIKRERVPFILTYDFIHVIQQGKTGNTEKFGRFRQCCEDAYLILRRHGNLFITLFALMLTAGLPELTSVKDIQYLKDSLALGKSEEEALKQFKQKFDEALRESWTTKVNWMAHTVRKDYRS
PI3Kβ, sequence (P27986 whole entry partner, the tested form may be a part): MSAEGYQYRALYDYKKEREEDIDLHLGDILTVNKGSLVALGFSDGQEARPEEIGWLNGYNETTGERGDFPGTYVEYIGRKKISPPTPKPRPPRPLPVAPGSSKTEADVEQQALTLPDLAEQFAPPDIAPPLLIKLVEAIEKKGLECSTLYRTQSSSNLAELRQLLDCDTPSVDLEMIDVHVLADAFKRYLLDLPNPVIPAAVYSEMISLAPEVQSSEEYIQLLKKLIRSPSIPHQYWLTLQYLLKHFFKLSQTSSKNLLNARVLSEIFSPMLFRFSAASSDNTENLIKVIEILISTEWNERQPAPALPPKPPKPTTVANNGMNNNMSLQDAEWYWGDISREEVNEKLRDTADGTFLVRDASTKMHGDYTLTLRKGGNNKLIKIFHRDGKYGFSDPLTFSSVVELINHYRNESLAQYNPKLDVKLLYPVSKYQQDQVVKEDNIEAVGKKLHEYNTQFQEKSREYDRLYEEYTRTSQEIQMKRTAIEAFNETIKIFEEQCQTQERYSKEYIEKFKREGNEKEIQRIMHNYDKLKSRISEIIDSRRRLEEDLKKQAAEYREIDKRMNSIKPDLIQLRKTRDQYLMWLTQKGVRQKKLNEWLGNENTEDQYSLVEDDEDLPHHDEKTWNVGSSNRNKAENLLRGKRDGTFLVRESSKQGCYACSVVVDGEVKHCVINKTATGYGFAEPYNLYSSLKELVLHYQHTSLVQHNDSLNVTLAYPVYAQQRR
PI3Kγ, sequence (P48736 whole entry): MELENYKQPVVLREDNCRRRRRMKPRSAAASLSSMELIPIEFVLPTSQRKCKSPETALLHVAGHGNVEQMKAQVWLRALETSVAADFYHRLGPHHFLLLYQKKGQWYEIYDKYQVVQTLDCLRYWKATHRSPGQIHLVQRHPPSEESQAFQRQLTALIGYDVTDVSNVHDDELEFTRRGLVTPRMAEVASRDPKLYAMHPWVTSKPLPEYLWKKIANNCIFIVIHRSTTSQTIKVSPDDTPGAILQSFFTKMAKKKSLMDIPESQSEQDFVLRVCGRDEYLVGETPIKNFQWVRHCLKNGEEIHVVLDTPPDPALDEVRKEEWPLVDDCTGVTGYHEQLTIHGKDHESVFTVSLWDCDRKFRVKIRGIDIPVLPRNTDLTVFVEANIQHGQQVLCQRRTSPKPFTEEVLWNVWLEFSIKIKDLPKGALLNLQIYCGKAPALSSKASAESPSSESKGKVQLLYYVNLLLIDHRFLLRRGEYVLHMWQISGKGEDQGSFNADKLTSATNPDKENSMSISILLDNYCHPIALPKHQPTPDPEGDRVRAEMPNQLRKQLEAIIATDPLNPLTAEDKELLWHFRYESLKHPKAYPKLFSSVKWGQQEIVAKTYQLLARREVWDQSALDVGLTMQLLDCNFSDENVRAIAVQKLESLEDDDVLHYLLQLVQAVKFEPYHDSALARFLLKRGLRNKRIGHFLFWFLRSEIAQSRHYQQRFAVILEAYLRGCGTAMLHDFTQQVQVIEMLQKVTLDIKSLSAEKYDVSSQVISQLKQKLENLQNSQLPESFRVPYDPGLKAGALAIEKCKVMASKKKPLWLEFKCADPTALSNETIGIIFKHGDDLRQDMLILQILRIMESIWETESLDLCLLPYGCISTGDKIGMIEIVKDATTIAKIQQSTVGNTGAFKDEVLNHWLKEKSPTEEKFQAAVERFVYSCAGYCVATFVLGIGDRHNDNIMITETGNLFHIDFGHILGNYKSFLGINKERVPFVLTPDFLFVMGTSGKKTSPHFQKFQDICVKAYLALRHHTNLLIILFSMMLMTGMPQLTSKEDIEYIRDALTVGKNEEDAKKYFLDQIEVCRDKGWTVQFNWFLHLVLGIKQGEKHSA
PI3Kγ, sequence (Q8WYR1 whole entry partner): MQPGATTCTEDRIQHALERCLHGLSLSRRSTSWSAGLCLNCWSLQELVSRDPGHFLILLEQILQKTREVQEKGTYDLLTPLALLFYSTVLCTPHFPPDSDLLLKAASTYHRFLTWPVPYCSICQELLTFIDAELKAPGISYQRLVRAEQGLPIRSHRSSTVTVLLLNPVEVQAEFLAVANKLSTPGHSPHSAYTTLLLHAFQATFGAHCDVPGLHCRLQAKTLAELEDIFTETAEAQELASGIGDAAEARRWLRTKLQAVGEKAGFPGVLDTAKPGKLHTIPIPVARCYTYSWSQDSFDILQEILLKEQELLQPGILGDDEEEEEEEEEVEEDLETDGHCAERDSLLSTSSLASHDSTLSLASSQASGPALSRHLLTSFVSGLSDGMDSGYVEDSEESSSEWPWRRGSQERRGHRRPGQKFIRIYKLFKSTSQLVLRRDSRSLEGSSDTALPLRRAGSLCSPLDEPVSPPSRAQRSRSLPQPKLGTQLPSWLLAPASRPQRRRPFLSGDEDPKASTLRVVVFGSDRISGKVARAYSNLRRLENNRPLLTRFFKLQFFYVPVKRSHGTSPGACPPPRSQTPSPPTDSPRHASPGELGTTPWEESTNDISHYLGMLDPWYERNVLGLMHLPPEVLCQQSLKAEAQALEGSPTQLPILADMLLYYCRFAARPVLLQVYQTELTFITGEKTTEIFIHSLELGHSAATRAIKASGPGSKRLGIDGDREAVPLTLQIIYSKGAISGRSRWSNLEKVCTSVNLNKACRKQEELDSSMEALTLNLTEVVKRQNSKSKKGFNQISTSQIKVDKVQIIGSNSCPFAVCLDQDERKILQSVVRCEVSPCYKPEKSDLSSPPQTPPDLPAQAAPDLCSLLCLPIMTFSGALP
PI3Kδ, sequence (O00329 whole entry): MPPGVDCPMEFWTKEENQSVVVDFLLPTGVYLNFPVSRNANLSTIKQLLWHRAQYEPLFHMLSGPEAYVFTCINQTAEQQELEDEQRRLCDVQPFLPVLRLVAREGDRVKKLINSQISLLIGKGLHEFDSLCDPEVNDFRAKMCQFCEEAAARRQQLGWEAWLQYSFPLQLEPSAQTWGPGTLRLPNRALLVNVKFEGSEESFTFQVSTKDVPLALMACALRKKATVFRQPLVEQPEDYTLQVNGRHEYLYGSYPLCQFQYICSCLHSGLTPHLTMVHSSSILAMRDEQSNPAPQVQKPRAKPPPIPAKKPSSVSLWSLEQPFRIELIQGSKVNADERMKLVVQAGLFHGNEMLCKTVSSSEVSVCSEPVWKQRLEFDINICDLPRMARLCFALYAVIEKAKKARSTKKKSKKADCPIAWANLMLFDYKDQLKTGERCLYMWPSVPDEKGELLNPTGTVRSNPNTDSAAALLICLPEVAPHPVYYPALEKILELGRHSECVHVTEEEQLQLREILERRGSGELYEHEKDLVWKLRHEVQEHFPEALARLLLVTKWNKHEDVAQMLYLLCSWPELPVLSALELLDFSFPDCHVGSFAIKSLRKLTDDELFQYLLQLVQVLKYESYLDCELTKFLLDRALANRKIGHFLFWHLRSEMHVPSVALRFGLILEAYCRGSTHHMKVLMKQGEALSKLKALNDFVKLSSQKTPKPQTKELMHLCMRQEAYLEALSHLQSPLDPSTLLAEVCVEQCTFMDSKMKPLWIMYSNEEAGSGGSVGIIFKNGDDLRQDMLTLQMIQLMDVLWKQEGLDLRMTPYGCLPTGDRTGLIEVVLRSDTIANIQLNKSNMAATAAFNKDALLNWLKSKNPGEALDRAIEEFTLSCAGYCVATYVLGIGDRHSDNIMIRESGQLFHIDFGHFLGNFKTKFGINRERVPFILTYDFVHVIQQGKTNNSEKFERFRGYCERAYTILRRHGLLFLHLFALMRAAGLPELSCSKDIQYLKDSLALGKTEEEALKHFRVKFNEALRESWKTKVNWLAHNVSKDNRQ
PI3Kδ, sequence (P27986 whole entry partner): as the sequence (P27986 whole entry partner, the tested form may be a part) above

SMILES | IC50 (PI3Kα; bound given in uM) [µM] | IC50 (PI3Kδ; bound given in nM) [nM] | IC50 (PI3Kβ; bound given in uM) [µM] | IC50 (PI3Kγ; bound given in uM) [µM] | IC50 (PI3Kβ; bound given in nM) [µM] | IC50 (PI3Kγ; bound given in nM) [µM] | IC50 (PI3Kα; bound given in nM) [µM] | IC50 (PI3Kδ; bound given in uM) [nM]
Cc1cccc2nc([C@H](C)Nc3ncnc(N)c3C#Cc3ncccn3)n(-c3cc(F)cc(F)c3)c(=O)c12 [Compound 105a, (S)-2-(1-((6-amino-5-(pyrimidin-2-ylethynyl)pyrimidin-4-yl)amino)ethyl)-3-(3,5-difluorophenyl)-5-methylquinazolin-4(3H)-one] | > 1 | < 100 | > 1 | > 1 |  |  |  | 
CC[C@H](Nc1ncnc(N)c1C#Cc1cnccn1)c1nc2cccc(F)c2c(=O)n1-c1cc(F)cc(F)c1 [Compound 107a, (S)-2-(1-((6-amino-5-(pyrazin-2-ylethynyl)pyrimidin-4-yl)amino)propyl)-3-(3,5-difluorophenyl)-5-fluoroquinazolin-4(3H)-one] | > 1 | < 100 | > 1 | > 1 |  |  |  | 
CC[C@H](Nc1ncnc(N)c1C#Cc1cnccn1)c1nc2cccc(C)c2c(=O)n1-c1cc(F)cc(F)c1 [Compound 108a, (S)-2-(1-((6-amino-5-(pyrazin-2-ylethynyl)pyrimidin-4-yl)amino)propyl)-3-(3,5-difluorophenyl)-5-methylquinazolin-4(3H)-one] | > 1 | < 100 | > 1 | > 1 |  |  |  | 
C[C@H](Nc1ncnc(N)c1C#Cc1ccccc1)c1nc2cccc(F)c2c(=O)n1-c1cccc(C#N)c1 [Compound 110a, (S)-3-(2-(1-((6-amino-5-(phenylethynyl)pyrimidin-4-yl)amino)ethyl)-5-fluoro-4-oxoquinazolin-3(4H)-yl)benzonitrile] | > 1 | < 100 | > 1 | > 1 |  |  |  | 
C[C@H](Nc1ncnc(N)c1C#Cc1cnccn1)c1nc2cccc(S(C)(=O)=O)c2c(=O)n1-c1ccccc1 [Compound 113a, (S)-2-(1-((6-amino-5-(pyrazin-2-ylethynyl)pyrimidin-4-yl)amino)ethyl)-5-(methylsulfonyl)-3-phenylquinazolin-4(3H)-one] | > 1 | < 100 | > 1 | > 1 |  |  |  | 
C[C@H](Nc1ncnc(N)c1C#Cc1ncccn1)c1nc2cccc(Cl)c2c(=O)n1-c1cccnc1 [Compound 117a, (S)-2-(1-((6-amino-5-(pyrimidin-2-ylethynyl)pyrimidin-4-yl)amino)ethyl)-5-chloro-3-(pyridin-3-yl)quinazolin-4(3H)-one] | > 1 | < 100 | > 1 | > 1 |  |  |  | 
Cc1cccc2nc([C@H](C)Nc3ncnc(N)c3C#Cc3cnccn3)n(-c3cncc(F)c3)c(=O)c12 [Compound 120a, (S)-2-(1-((6-amino-5-(pyrazin-2-ylethynyl)pyrimidin-4-yl)amino)ethyl)-3-(5-fluoropyridin-3-yl)-5-methylquinazolin-4(3H)-one] | > 1 | < 100 | > 1 | > 1 |  |  |  | 
C[C@H](Nc1ncnc(N)c1C#Cc1cnccn1)c1nc2cccc(Cl)c2c(=O)n1C1C[C@H]2CC[C@@H](C1)N2C (stereo partly drawn) [Compound 124a, 2-((S)-1-((6-amino-5-(pyrazin-2-ylethynyl)pyrimidin-4-yl)amino)ethyl)-5-chloro-3-((1R,5S)-8-methyl-8-azabicyclo[3.2.1]octan-3-yl)quinazolin-4(3H)-one] | > 1 | < 100 | > 1 | > 1 |  |  |  | 
C[C@H](Nc1ncnc(N)c1C#Cc1cnccn1)c1nc2cccc(Cl)c2c(=O)n1N1CCCCCC1 [Compound 126a, (S)-2-(1-((6-amino-5-(pyrazin-2-ylethynyl)pyrimidin-4-yl)amino)ethyl)-3-(azepan-1-yl)-5-chloroquinazolin-4(3H)-one] | > 1 | < 100 | > 1 | > 1 |  |  |  | 
C[C@H](Nc1ncnc(N)c1C#Cc1ccc(F)cn1)c1nc2cccc(Cl)c2c(=O)n1N1CCNCC1 [Compound 127a, (S)-2-(1-((6-amino-5-((5-fluoropyridin-2-yl)ethynyl)pyrimidin-4-yl)amino)ethyl)-5-chloro-3-(piperazin-1-yl)quinazolin-4(3H)-one] | > 1 | < 100 |  | > 1 | < 0.1 |  |  | 
Cc1cccc2nc([C@H](C)Nc3ncnc(N)c3C#Cc3ccc(F)cn3)n(-c3cccc(CN(C)S(C)(=O)=O)c3)c(=O)c12 [Compound 128a, (S)—N-(3-(2-(1-((6-amino-5-((5-fluoropyridin-2-yl)ethynyl)pyrimidin-4-yl)amino)ethyl)-5-methyl-4-oxoquinazolin-3(4H)-yl)benzyl)-N-methylmethanesulfonamide] | > 1 | < 100 | > 1 | > 1 |  |  |  | 
C[C@H](Nc1ncnc(N)c1C#Cc1ccc(F)cn1)c1nc2cccc(Cl)c2c(=O)n1-c1cccc(CN(C)S(C)(=O)=O)c1 [Compound 129a, (S)—N-(3-(2-(1-((6-amino-5-((5-fluoropyridin-2-yl)ethynyl)pyrimidin-4-yl)amino)ethyl)-5-chloro-4-oxoquinazolin-3(4H)-yl)benzyl)-N-methylmethanesulfonamide] | > 1 | < 100 | > 1 | > 1 |  |  |  | 
C[C@H](Nc1ncnc(N)c1C#Cc1ccc(F)cn1)c1nc2cccc(Cl)c2c(=O)n1-c1cccc(CNS(C)(=O)=O)c1 [Compound 130a, (S)—N-(3-(2-(1-((6-amino-5-((5-fluoropyridin-2-yl)ethynyl)pyrimidin-4-yl)amino)ethyl)-5-chloro-4-oxoquinazolin-3(4H)-yl)benzyl)methanesulfonamide] | > 1 | < 100 | > 1 | > 1 |  |  |  | 
CC(C)CS(=O)(=O)NCc1cccc(-n2c([C@H](C)Nc3ncnc(N)c3C#Cc3ccc(F)cn3)nc3cccc(Cl)c3c2=O)c1 [Compound 131a, (S)—N-(3-(2-(1-((6-amino-5-((5-fluoropyridin-2-yl)ethynyl)pyrimidin-4-yl)amino)ethyl)-5-chloro-4-oxoquinazolin-3(4H)-yl)benzyl)-2-methylpropane-1-sulfonamide] | > 1 | < 100 | > 1 | > 1 |  |  |  | 
C[C@H](Nc1ncnc(N)c1C#Cc1ccc(C(F)(F)F)cn1)c1nc2cccc(Cl)c2c(=O)n1-c1ccccc1 [Compound 132a, (S)-2-(1-((6-amino-5-((5-(trifluoromethyl)pyridin-2-yl)ethynyl)pyrimidin-4-yl)amino)ethyl)-5-chloro-3-phenylquinazolin-4(3H)-one] | > 1 | < 100 | > 1 |  |  | < 0.1 |  | 
C[C@H](Nc1ncnc(N)c1C#Cc1ccc(C(=O)O)cn1)c1nc2cccc(Cl)c2c(=O)n1-c1ccccc1 [Compound 138a, (S)-6-((4-amino-6-((1-(5-chloro-4-oxo-3-phenyl-3,4-dihydroquinazolin-2-yl)ethyl)amino)pyrimidin-5-yl)ethynyl)nicotinic acid] | > 1 | < 100 | > 1 | > 1 |  |  |  | 
C[C@H](Nc1ncnc(N)c1C#CC1CCCCC1)c1nc2cccc(Cl)c2c(=O)n1-c1ccccc1 [Compound 145a, (S)-2-(1-((6-amino-5-(cyclohexylethynyl)pyrimidin-4-yl)amino)ethyl)-5-chloro-3-phenylquinazolin-4(3H)-one] | > 1 | < 100 | > 1 | > 1 |  |  |  | 
C[C@H](Nc1ncnc(N)c1C#Cc1cc(C(F)F)ccn1)c1nc2cccc(Cl)c2c(=O)n1-c1ccccc1 [Compound 149a, (S)-2-(1-((6-amino-5-((4-(difluoromethyl)pyridin-2-yl)ethynyl)pyrimidin-4-yl)amino)ethyl)-5-chloro-3-phenylquinazolin-4(3H)-one] | > 1 | < 100 |  |  | < 0.1 | < 0.1 |  | 
C[C@H](Nc1ncnc(N)c1C#Cc1cccc(CN)n1)c1nc2cccc(Cl)c2c(=O)n1-c1ccccc1 [Compound 159a, (S)-2-(1-((6-amino-5-((6-(aminomethyl)pyridin-2-yl)ethynyl)pyrimidin-4-yl)amino)ethyl)-5-chloro-3-phenylquinazolin-4(3H)-one] | > 1 | < 100 | > 1 | > 1 |  |  |  | 
CC(=O)c1cccc(C#Cc2c(N)ncnc2N[C@@H](C)c2nc3cccc(Cl)c3c(=O)n2-c2ccccc2)c1 [Compound 161a, (S)-2-(1-((5-((3-acetylphenyl)ethynyl)-6-aminopyrimidin-4-yl)amino)ethyl)-5-chloro-3-phenylquinazolin-4(3H)-one] |  | < 100 |  |  | < 0.1 | < 0.1 | < 0.1 | 
C[C@H](Nc1ncnc(N)c1C#Cc1ncccc1CO)c1nc2cccc(Cl)c2c(=O)n1-c1ccccc1 [Compound 163a, (S)-2-(1-((6-amino-5-((3-(hydroxymethyl)pyridin-2-yl)ethynyl)pyrimidin-4-yl)amino)ethyl)-5-chloro-3-phenylquinazolin-4(3H)-one] | > 1 |  | > 1 | > 1 |  |  |  | > 1000
